Experimental data: patent US20250066335A1, “POLYSUBSTITUTED 4-HYDROXYPYRIDINE AND 4-HYDROXYQUINOLINE DERIVATIVES AS GPR84 ANTAGONISTS” (UNIVERSITY OF COPENHAGEN, priority 2021, published 2025)

biological target: T1, GPR84 (Homo sapiens, UniProt Q9NQS5); assay: PRESTO-Tango β-arrestin2 recruitment assay, GPR84 antagonistic activity; format: cell-based; conditions: antagonist activity in the Presto-TANGO assay; inhibition of the response from the agonist ZQ-16 (100 nM); HTLA cells
T1 construct: expressed in transfected cells; host or cells: HTLA cells (HEK293 line stably expressing a tTA-dependent luciferase reporter and a β-arrestin2-TEV fusion gene), transiently transfected with PEI
T1 sequence (Q9NQS5 whole entry, the tested form may be a part): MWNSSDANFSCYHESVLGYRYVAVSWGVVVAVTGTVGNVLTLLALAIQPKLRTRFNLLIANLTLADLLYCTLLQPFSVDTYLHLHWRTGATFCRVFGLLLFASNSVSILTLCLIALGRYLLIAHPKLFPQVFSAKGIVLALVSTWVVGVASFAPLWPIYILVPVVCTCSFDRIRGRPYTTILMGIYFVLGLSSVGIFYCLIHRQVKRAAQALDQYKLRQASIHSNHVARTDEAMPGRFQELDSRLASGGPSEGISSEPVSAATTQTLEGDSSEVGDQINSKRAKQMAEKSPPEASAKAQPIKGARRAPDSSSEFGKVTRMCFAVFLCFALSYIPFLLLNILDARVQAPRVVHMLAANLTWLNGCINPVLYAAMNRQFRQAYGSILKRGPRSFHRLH
Method: PRESTO-Tango β-arrestin recruitment assay (W.K. Kroeze et al., 2015). HTLA cells (a HEK293 cell line stably expressing a tTA-dependent luciferase reporter and a β-arrestin2-TEV fusion gene) were maintained in Dulbecco's Modified Eagle's Medium (DMEM) supplemented with 10% Fetal Bovine Serum (dFBS), 100 U/mL penicillin and 100 μg/mL streptomycin, 2 μg/mL puromycin and 100 μg/mL hygromycin B in a humidified atmosphere at 37° C. in 5% CO2. For transfection, cells were plated at 9×10^6 to 10×10^6 cells per 15-cm cell-culture dish (day 1). The following day (day 2), cells were transfected by adding 5 μg DNA and 15 μg polyethylenimine (PEI) diluted in 1 mL Opti-MEM (Reduced Serum Medium supplied by ThermoFisher). On day 3, transfected cells were transferred at 25000 cells per well in 40 μl of medium into poly-l-lysine-coated and rinsed 384-well white, clear-bottomed cell-culture plates (Greiner Bio-One). On day 4, dilutions of the ligands to be tested were prepared in 1% dFBS DMEM and 10 μL were added to each well. On day 5, 20 μl per well of Bright-Glo solution (Promega) diluted 10-fold in assay buffer (Hanks' Balanced Salt Solution [HBSS], 20 mM HEPES, 1 mM CaCl2, 1 mM MgCl2, pH adjusted to 7.4 by 5 M NaOH) was added to each well. After incubation for 20 min at room temperature, luminescence was counted in an Enspire luminescence counter at 384 nm. Results in the form of relative luminescence units (RLU) were exported into Excel spreadsheets, and GraphPad Prism was used for analysis of data. To measure constitutive activity, no ligand was added on day 4.
The GPR84 antagonistic activity of the compounds was determined using the PRESTO-Tango β-arrestin2 recruitment assay (Assay I, see assays above), from which the concentration of each compound required for 50% inhibition (IC50) of the response from the agonist ZQ-16 (100 nM) was determined. The antagonistic activity for each compound is given in Table 1 as the pIC50, which is the negative log of the IC50 value when converted to molar.

IC50 [nM] | Compound
3.31 | CCOc1ccc(CCc2nc(OCC3COCCO3)cc(O)c2C)cc1 (centres unmarked) [Example 23, 6-((1,4-Dioxan-2-yl)methoxy)-2-(4-ethoxyphenethyl)-3-methylpyridin-4-ol]
724 | CCOc1ccc(-c2ccc3c(O)cc(OCC4CCCCO4)nc3c2)cc1 (centres unmarked) [Example 5, 7-(4-Ethoxyphenyl)-2-((tetrahydro-2H-pyran-2-yl)methoxy)quinolin-4-ol]
0.257 | CCOC(=O)CCCCOc1ccc(CCc2nc(OCC3COCCO3)cc(O)c2CC)cc1 (centres unmarked) [Example 36, Ethyl 5-(4-(2-(6-((1,4-dioxan-2-yl)methoxy)-3-ethyl-4-hydroxypyridin-2-yl)ethyl)phenoxy)pentanoate]

Second part, the molecule before the results:

Compound | IC50 [nM]
CCOc1ccc(CCc2nc(OCC3CCCCO3)cc(O)c2C#N)cc1 (centres unmarked) [Example 4, 2-(4-Ethoxyphenethyl)-4-hydroxy-6-((tetrahydro-2H-pyran-2-yl)methoxy)nicotinonitrile] | 145
CCCc1ccc(CCc2nc(OCC3CCCCO3)cc(O)c2C)cc1 (centres unmarked) [Example 2, 3-Methyl-2-(4-propylphenethyl)-6-((tetrahydro-2H-pyran-2-yl)methoxy)pyridin-4-ol] | 1.32
CCc1c(O)cc(OCC2COCCO2)nc1CCc1ccc(OCCCS(C)(=O)=O)cc1 (centres unmarked) [Example 39, 6-((1,4-Dioxan-2-yl)methoxy)-3-ethyl-2-(4-(3-(methylsulfonyl)propoxy)phenethyl)pyridin-4-ol] | 0.871
CCCc1ccc(CCc2nc(OCC3CCCCO3)cc(O)c2CCC(=O)O)cc1 (centres unmarked) [Example 14, Sodium 3-(4-hydroxy-2-(4-propylphenethyl)-6-((tetrahydro-2H-pyran-2-yl)methoxy)pyridin-3-yl)propanoate] | 1.12
CCOc1ccc(C2CC2c2nc(OCC3COCCO3)cc(O)c2CC)cc1 (centres unmarked) [Example 51, 6-((1,4-Dioxan-2-yl)methoxy)-2-(2-(4-ethoxyphenyl)cyclopropyl)-3-ethylpyridin-4-ol] | 87.1
